This assay has as its system Wistar rats. The assay is described as follows: Aerosil-induced inflammatory reaction, paw swelling. Format: in vivo, rat. The conditions noted are these: treated 15 hours after noxa, 21 hour value. The protocol: The inflammatory reaction was induced by intraplantary injection of 0.1 ml of a 2% Aerosil suspension into a hind paw of Wistar rats weighing 130-160 g. The inhibitors according to the invention used for the treatment of the inflammatory reaction were dissolved in 0.9% sodium chloride solution in a concentration of 10-20 mg/ml. The experimental animals were treated by intraperitoneal, subcutaneous or intravenous injection of 0.5-1.0 ml of the solution of the inhibitors 15 hours after the inflammatory noxa had been set. The swelling of the inflamed paw, which is a measure of the severity of the inflammatory reaction, was followed with respect to time using a Kemper antiphlogmeter. The 21 hour value after the induction of inflammation (=6 hours after injection of the inhibitors according to the invention) was determined to ascertain the dose/effect relationship.

For “basic pancreatic trypsin inhibitor [BPTI]”, the “Inhibition of the inflammatory reaction, swelling of inflamed paw” value is listed as “does not inhibit the inflammatory reaction”.

These data come from US4485100A, “Elastase inhibitors, a process for their preparation and medicaments containing these inhibitors” (Bayer Aktiengesellschaft, priority 1982, dated 1984).
